Key:
[1] = Inhibition of carnitine palmitoyltransferase in rat liver mitochondria assessed as formation of formation of palmitoyl[3H]carnitine from palmitoyl-CoA and [3H]carnitine
[2] = Inhibition of carnitine palmitoyltransferase hemidiaphragms isolated from fasted pretreated rat assessed as reduction of [14]CO2 production from [1-14]-palmitate or [14C]-oleate
Canis familiaris [3] = assay: Reduction in blood glucose in alloxan -treated dog at 7.5 mg/kg, po administered as single dose measured 6 hrs post dose (reference value: 9 mM); type: functional, Canis lupus familiaris
Canis familiaris [4] = assay: Reduction in blood glucose in STZ-treated dog at 0.7 to 2 mg/kg/day, po for 7 days measured 6 hrs post dose (reference value: 9 mM); type: functional, Canis lupus familiaris
Canis familiaris [5] = assay: Reduction in fasting glucose in STZ-treated dog at 2.5 mg/kg/day, po for 7 days; type: functional, Canis lupus familiaris; design: scale not given: the % may be the effect or the level left
Rattus norvegicus [6] = assay: Reduction in KB level in alloxan-treated rat at 25 to 50 mg/kg, po measured 2 to 5 hrs post dose; type: functional; design: scale not given: the % may be the effect or the level left
Rattus norvegicus [7] = assay: Suppression of labeled pyruvate conversion to [14C]glucose in Sprague-Dawley rat at 10 to 20 mg/kg, po; type: functional; details: dose mg/kg 10-20
Mus musculus [8] = assay: Reduction in blood glucose in fasted db/db mouse at 50 to 100 mg/kg, po measured 2 to 4 hrs post dose; type: functional; design: scale not given: the % may be the effect or the level left
Mus musculus [9] = assay: Reduction in blood glucose in fed db/db mouse at 50 to 100 mg/kg, po measured 2 to 4 hrs post dose; type: functional; design: scale not given: the % may be the effect or the level left
Sus scrofa = assay: Reduction in blood glucose in STZ-treated diabetic pig at 10 to 40 umol/kg, iv measured 6 hrs post dose; type: functional; design: scale not given: the % may be the effect or the level left
[10] = Inhibition of rat FAO
[11] = Inhibition of human FAO
Cavia porcellus = assay: Reduction in blood glucose in SPF-white inbred guinea pig at 7 to 56 umol/kg, po; type: functional
Rattus norvegicus [12] = assay: Reduction in blood glucose in adrenalectomized rat at 25 to 150 umol/kg, po; type: functional; design: scale not given: the % may be the effect or the level left
Rattus norvegicus [13] = assay: Reduction in total cholesterol level in fasted Sprague-Dawley rat at 8 to 300 umol/kg, po measured 24 hrs post dose; type: functional; design: scale not given: the % may be the effect or the level left
Rattus norvegicus [14] = assay: Increase in plasma TG level in fasted Sprague-Dawley rat at 8 to 300 umol/kg, po measured 2 to 4 hrs post dose; type: functional
Rattus norvegicus [15] = assay: Increase in plasma FFAs level in fasted Sprague-Dawley rat at 8 to 300 umol/kg, po measured 2 to 4 hrs post dose; type: functional
Rattus norvegicus [16] = assay: Reduction in blood KB level in fasted Sprague-Dawley rat at 8 to 300 umol/kg, po; type: functional; design: scale not given: the % may be the effect or the level left
Rattus norvegicus [17] = assay: Reduction in blood glucose in po dosed fasted Sprague-Dawley rat; type: functional
Rattus norvegicus [18] = assay: Reduction in blood glucose in fasted Sprague-Dawley rat at 8 to 300 umol/kg, po measured 2 hrs post dose; type: functional; design: scale not given: the % may be the effect or the level left
Rattus norvegicus [19] = assay: Inhibition of CPT1 in fasted Sprague-Dawley rat liver mitochondria at 0.6 to 60 umol/kg, po measured 4 hrs post dose; type: functional
Rattus norvegicus [20] = assay: Reduction in blood KB in fasted Sprague-Dawley rat at 0.6 to 60 umol/kg, po; type: functional; design: scale not given: the % may be the effect or the level left
Rattus norvegicus [21] = assay: Reduction in blood glucose in fasted Sprague-Dawley rat at 0.6 to 60 umol/kg, po; type: functional; design: scale not given: the % may be the effect or the level left
Mus musculus [22] = assay: Reduction in glucose AUC in db/db mouse at 19 umol/kg/day, po for 4 days administering last dose 1 hr before glucose load by OGTT test; type: functional; design: scale not given: the % may be the effect or the level left
Mus musculus [23] = assay: Reduction in FBG in db/db mouse at 19 umol/kg/day, po for 4 days measured 1 hr post dose after 16 hrs fasting; type: functional; design: scale not given: the % may be the effect or the level left
[24] = Toxicity in po dosed Sprague-Dawley rat assessed as hypoglycemic coma; type: organism-based; details: in vivo
Rattus norvegicus [25] = assay: Reduction in blood glucose in po dosed Sprague-Dawley rat; type: functional
Rattus norvegicus [26] = assay: Reduction in blood glucose in Sprague-Dawley rat at 600 umol/kg, po; type: functional; design: scale not given: the % may be the effect or the level left
Rattus norvegicus [27] = assay: Inhibition of CPT1 in Sprague-Dawley rat liver mitochondria at 0.6 to 60 umol/kg, po measured 4 hrs post dose; type: functional
Rattus norvegicus [28] = assay: Reduction in blood KB in Sprague-Dawley rat at 0.6 to 60 umol/kg, po; type: functional; design: scale not given: the % may be the effect or the level left
Rattus norvegicus [29] = organism: Rattus norvegicus; assay: Reduction in oxidation rate in rat liver mitochondria treated at 0.05% or 0.2% dose through food-admix for 12 weeks by polarographic oxygen uptake method; type: functional, organism-based; design: scale not given: the % may be the effect or the level left
Rattus norvegicus [30] = organism: Rattus norvegicus; assay: Reduction in oxidation rate in rat liver mitochondria treated at 0.05% or 0.2% dose through food-admix for 12 weeks; type: functional, organism-based; design: scale not given: the % may be the effect or the level left
[31] = Inhibition of carnitine palmitoyltransferase in hepatocytes from fasted rat assessed as oxidation of [U-14C]palmitate and production of acetoacetate and BHB; type: cell-based; details: Hepatocyte
Homo sapiens [32] = organism: Homo sapiens; assay: Inhibition of carnitine palmitoyltransferase in human fibroblasts assessed as [14]CO2 production from [U-14C]glucose at 5 to 50 uM by radiometric assay; design: scale not given: the % may be the effect or the level left
Homo sapiens [33] = organism: Homo sapiens; assay: Inhibition of carnitine palmitoyltransferase in human fibroblasts assessed as [14]CO2 production from [1-14C]pyruvate at 5 to 50 uM by radiometric assay; design: scale not given: the % may be the effect or the level left
Homo sapiens [34] = organism: Homo sapiens; assay: Inhibition of carnitine palmitoyltransferase in human fibroblasts assessed as [14]CO2 production at 5 to 50 uM from [U-14C]palmitate by radiometric assay; design: scale not given: the % may be the effect or the level left
Rattus norvegicus [35] = assay: Increase in coronary flow in perfused rat heart at 5 mg/kg, sc administered as single dose administered 120 mins before start of perfusion; type: functional; details: route subcutaneous

CCCCCCCCCCCCCCC1(C(=O)OC)CO1 (racemic) [METHYL PALMOXIRATE]
IC50 [1]: 0.046 µM
EC50 [2]: 1 µM
Activity (Canis familiaris [3]): 6.5 mM
Activity (Canis familiaris [4]): 6.5 mM
Activity (Canis familiaris [5]): 8%
Activity (Rattus norvegicus [6]): 70%
Activity (Rattus norvegicus [7]): 50%
Activity (Mus musculus [8]): 78%
Activity (Mus musculus [9]): 40%

O=C([O-])C1(CCCCCc2ccc(Cl)cc2)CO1.[Na+] (racemic)
Activity (Sus scrofa): <=35%
IC50 [10]: 95.9 µM
IC50 [11]: 10.4 µM
ED50 (Cavia porcellus): 8.7 mg/kg
Activity (Rattus norvegicus [12]): 34%
Activity (Rattus norvegicus [13]): 43%
Activity (Rattus norvegicus [14]): <=290%
Activity (Rattus norvegicus [15]): 300%
Activity (Rattus norvegicus [16]): <=75%
ED50 (Rattus norvegicus [17]): 8.7 mg/kg
Activity (Rattus norvegicus [18]): <=50%
inhibition (INH) (Rattus norvegicus [19]): <=98%
Activity (Rattus norvegicus [20]): 78%
Activity (Rattus norvegicus [21]): <=25%
Activity (Mus musculus [22]): 50%
Activity (Mus musculus [23]): 60%
LD50 [24]: 486 mg/kg
ED50 (Rattus norvegicus [25]): 9 mg/kg
Activity (Rattus norvegicus [26]): 80%
inhibition (INH) (Rattus norvegicus [27]): 99%
Activity (Rattus norvegicus [28]): <=40%
Activity (Rattus norvegicus [29]): < 50%
Activity (Rattus norvegicus [30]): < 80%
IC50 [31]: 5 µM
Activity (Homo sapiens [32]): 250%
Activity (Homo sapiens [33]): 24%
Activity (Homo sapiens [34]): 90%
Activity (Rattus norvegicus [35]): 50%

Reference: ChEMBL document CHEMBL2216752, “Carnitine palmitoyltransferase (CPT) modulators: a medicinal chemistry perspective on 35 years of research” (J Med Chem, 2011)
